Tests used:
Assay type in all cases: toxicity, cell-based
U2OS = assay: Incucyte cell viability with U2OS; settings: human, 10 µM, compound concentration 10 uM
Fibroblast = assay: Incucyte cell viability with human fibroblast; settings: 10 µM, compound concentration 10 uM
HEK-293T = assay: Incucyte cell viability with HEK293T; settings: human, 10 µM, compound concentration 10 uM
[1] = 6 h, replicate number 2, timepoint 6 hours
[2] = 12 h, replicate number 2, timepoint 12 hours
[3] = 18 h, replicate number 1, timepoint 18 hours
[4] = 24 h, replicate number 1, timepoint 24 hours
[5] = 0 h, replicate number 1, timepoint 0 hours
[6] = 6 h, replicate number 1, timepoint 6 hours
[7] = 12 h, replicate number 1, timepoint 12 hours
[8] = 18 h, replicate number 2, timepoint 18 hours
[9] = 24 h, replicate number 2, timepoint 24 hours
[10] = 0 h, replicate number 2, timepoint 0 hours
Note: filed as whole numbers so only -1 and 0 and 1 occur.

## CC(C)(N)C(=O)N[C@H](COCc1ccccc1)C(=O)N1CCC2(CC1)CN(S(C)(=O)=O)c1ccccc12.CS(=O)(=O)O [IBUTAMOREN MESYLATE]
U2OS; [1]
  Growth Rate: 1
U2OS; [2]
  Growth Rate: 1
U2OS; [3]
  Growth Rate: 1
U2OS; [4]
  Growth Rate: 1
Fibroblast; [5]
  Growth Rate: 1
Fibroblast; [6]
  Growth Rate: 0
Fibroblast; [1]
  Growth Rate: 1
Fibroblast; [7]
  Growth Rate: 0
Fibroblast; [2]
  Growth Rate: 1
Fibroblast; [3]
  Growth Rate: 0
Fibroblast; [4]
  Growth Rate: 0
HEK-293T; [5]
  Growth Rate: 0
HEK-293T; [6]
  Growth Rate: 0
HEK-293T; [7]
  Growth Rate: 1
HEK-293T; [3]
  Growth Rate: 0
HEK-293T; [8]
  Growth Rate: 1
HEK-293T; [4]
  Growth Rate: 0
HEK-293T; [9]
  Growth Rate: 1

## CC(C)(C)c1ccc(C(=O)Nc2cn3cc(-n4ccnc4)ccc3n2)cc1.Cl.Cl
U2OS; [5]
  Growth Rate: 1
U2OS; [10]
  Growth Rate: 0
U2OS; [6]
  Growth Rate: 1
U2OS; [7]
  Growth Rate: 1
U2OS; [3]
  Growth Rate: 1
U2OS; [4]
  Growth Rate: 1
Fibroblast; [5]
  Growth Rate: 0
Fibroblast; [7]
  Growth Rate: 1
Fibroblast; [3]
  Growth Rate: 1
Fibroblast; [4]
  Growth Rate: 1
HEK-293T; [10]
  Growth Rate: 1
HEK-293T; [6]
  Growth Rate: 0
HEK-293T; [7]
  Growth Rate: 0
HEK-293T; [3]
  Growth Rate: 0
HEK-293T; [4]
  Growth Rate: 0

## Cc1cc2c(cc1C1(c3ccc(C(=O)O)cn3)CC1)C(C)(C)CCC2(C)C
U2OS; [5]
  Growth Rate: 0
U2OS; [7]
  Growth Rate: 1
U2OS; [3]
  Growth Rate: 1
U2OS; [4]
  Growth Rate: 1
Fibroblast; [5]
  Growth Rate: 1
Fibroblast; [10]
  Growth Rate: 0
Fibroblast; [6]
  Growth Rate: 0
Fibroblast; [1]
  Growth Rate: 1
Fibroblast; [7]
  Growth Rate: 0
Fibroblast; [3]
  Growth Rate: 1
Fibroblast; [4]
  Growth Rate: 0
Fibroblast; [9]
  Growth Rate: 1
HEK-293T; [5]
  Growth Rate: 0
HEK-293T; [6]
  Growth Rate: 1
HEK-293T; [7]
  Growth Rate: 1
HEK-293T; [2]
  Growth Rate: 0
HEK-293T; [3]
  Growth Rate: 1
HEK-293T; [8]
  Growth Rate: 0
HEK-293T; [4]
  Growth Rate: 0

## Cc1c(C2=CCN(C(=O)N(C)C(C)C)CC2)nnn1-c1cccnc1F
U2OS; [5]
  Growth Rate: 0
U2OS; [1]
  Growth Rate: 0
U2OS; [7]
  Growth Rate: 1
U2OS; [3]
  Growth Rate: 1
U2OS; [4]
  Growth Rate: 1
Fibroblast; [5]
  Growth Rate: 1
Fibroblast; [10]
  Growth Rate: 0
Fibroblast; [6]
  Growth Rate: 0
Fibroblast; [7]
  Growth Rate: 0
Fibroblast; [2]
  Growth Rate: 1
Fibroblast; [3]
  Growth Rate: 0
Fibroblast; [8]
  Growth Rate: 1
Fibroblast; [4]
  Growth Rate: 0
Fibroblast; [9]
  Growth Rate: 1
HEK-293T; [5]
  Growth Rate: 0
HEK-293T; [6]
  Growth Rate: 1
HEK-293T; [7]
  Growth Rate: 1
HEK-293T; [3]
  Growth Rate: 0
HEK-293T; [8]
  Growth Rate: 1
HEK-293T; [4]
  Growth Rate: 1

## CCC(=O)NC1Cc2ccccc2C(c2ccccc2)C1 (stereo unspecified)
U2OS; [5]
  Growth Rate: 0
U2OS; [1]
  Growth Rate: 0
U2OS; [7]
  Growth Rate: 1
U2OS; [3]
  Growth Rate: 1
U2OS; [8]
  Growth Rate: 0
U2OS; [4]
  Growth Rate: 0
Fibroblast; [5]
  Growth Rate: 0
Fibroblast; [6]
  Growth Rate: 0
Fibroblast; [7]
  Growth Rate: 0
Fibroblast; [3]
  Growth Rate: 0
Fibroblast; [4]
  Growth Rate: 0
HEK-293T; [5]
  Growth Rate: 0
HEK-293T; [6]
  Growth Rate: 1
HEK-293T; [1]
  Growth Rate: 0
HEK-293T; [7]
  Growth Rate: 0
HEK-293T; [3]
  Growth Rate: 0
HEK-293T; [4]
  Growth Rate: 0

## CCc1cc(Nc2nccc(-c3c(-c4ccc(OC)c(C(=O)Nc5c(F)cccc5F)c4)nc4ccccn34)n2)c(OC)cc1N1CCC(N2CCN(S(C)(=O)=O)CC2)CC1
U2OS; [6]
  Growth Rate: 1
U2OS; [7]
  Growth Rate: 1
U2OS; [3]
  Growth Rate: 1
U2OS; [8]
  Growth Rate: 0
U2OS; [4]
  Growth Rate: 1
Fibroblast; [5]
  Growth Rate: 1
Fibroblast; [6]
  Growth Rate: 1
Fibroblast; [1]
  Growth Rate: 0
Fibroblast; [7]
  Growth Rate: 1
Fibroblast; [2]
  Growth Rate: 0
Fibroblast; [3]
  Growth Rate: 1
Fibroblast; [8]
  Growth Rate: 0
Fibroblast; [4]
  Growth Rate: 1
Fibroblast; [9]
  Growth Rate: 0
HEK-293T; [5]
  Growth Rate: 1
HEK-293T; [10]
  Growth Rate: 0
HEK-293T; [6]
  Growth Rate: 0
HEK-293T; [7]
  Growth Rate: 0
HEK-293T; [2]
  Growth Rate: 1
HEK-293T; [3]
  Growth Rate: 0
HEK-293T; [4]
  Growth Rate: 0
HEK-293T; [9]
  Growth Rate: 1
